The results in this text go back to ChEMBL document CHEMBL1125697, “Synthesis and pharmacological examination of 1-(3-methoxy-4-methylphenyl)-2-aminopropane and 5-methoxy-6-methyl-2-aminoindan: similarities to 3,4-(methylenedioxy)methamphetamine (MDMA)” (J Med Chem, 1991).

What all share (assay type): functional
In assay [1] the test system is Rattus norvegicus. Put plainly: Percentage of non disrupted rats that selected the drug lever, when given at a dose of 0.5 mg/kg.
Assay [2] deals with Rattus norvegicus. Put plainly: Percentage of non disrupted rats that selected the drug lever, when given at a dose of 0.25 mg/kg.
Assay [3] has as its system Rattus norvegicus. Put plainly: Effective dose was evaluated for drug discrimination in I-trained rats, when given at a dose of 2.32 micro mol/kg.
The test system of assay [4] is Rattus norvegicus. Put plainly: Percentage of non disrupted rats that selected the drug lever, when given at a dose of 1.00 mg/kg.
Assay [5] has as its system Rattus norvegicus. Put plainly: Effective dose was evaluated for drug discrimination in I-trained rats, when given at a dose of 0.25 mg/kg. As to conditions: Rattus norvegicus; read-out: ED50.
For assay [6], the species on record is Rattus norvegicus. Put plainly: Compound was evaluated for the uptake inhibition of [3H]-5-HT in rats.
Assay [7] deals with Rattus norvegicus. Put plainly: Effective dose was evaluated for drug discrimination in I-trained rats, when given at a dose of 1.16 micro mol/kg.
Assay [8] deals with Rattus norvegicus. Put plainly: Percentage of non disrupted rats that selected the drug lever, when given at a dose of 1.50 mg/kg. The settings on record: dose 1.5 mg/kg.
In assay [9] the test system is Rattus norvegicus. Put plainly: Effective dose was evaluated for drug discrimination in I-trained rats, when given at a dose of 0.5 mg/kg.

pIC50: −log10 of the molar value.

A word on the ED50: it is the dose at which the effect has come halfway, by size or by number of responders. The term pIC50 denotes −log10 of the IC50, conventionally taken in molar units. For `COc1cc(C[C@@H](C)N)ccc1C`, the SDL with Rattus norvegicus [1] was 38%; in the assay with Rattus norvegicus [2], 33%; in the assay on Rattus norvegicus [4], 75%; in the assay on Rattus norvegicus [8], 100%. Further, the ED50 amounted to 2.12 µmol/kg in the assay with Rattus norvegicus [3], 0.46 mg/kg in the assay on Rattus norvegicus [5], 2.12 µmol/kg in the assay on Rattus norvegicus [7] and 0.46 mg/kg in the assay on Rattus norvegicus [9]. The negative-log IC50 (pIC50) in the assay filed under Rattus norvegicus [6] was 6.70.
